This is an account of results in US20130217664A1, “NOVEL COMPOUNDS USEFUL FOR THE TREATMENT OF DEGENERATIVE AND INFLAMMATORY DISEASES” (priority 2012, published 2013).

By IC50 is commonly meant the concentration that gives 50% inhibition.

One test concerns CTLL-2 cell line. Put plainly: CTLL2 viability assay. Format: cell-based. To be noted: Mus musculus, IL-2 dependent CTLL2 viability, 24 h, ATP-lite. The text has this:
The protocol describes the methods to analyse the activity of compounds on their ability to sustain the IL2-dependent viability of CTLL2.
Final DMSO concentration was 0.1%.

In a further test the target is T1, human JAK3 (Homo sapiens, UniProt P52333).
T1 construct: catalytic domain (amino acids 781-1124; catalog number PV3855); purchased Invitrogen PV3855
T1 sequence (P52333 781-1124): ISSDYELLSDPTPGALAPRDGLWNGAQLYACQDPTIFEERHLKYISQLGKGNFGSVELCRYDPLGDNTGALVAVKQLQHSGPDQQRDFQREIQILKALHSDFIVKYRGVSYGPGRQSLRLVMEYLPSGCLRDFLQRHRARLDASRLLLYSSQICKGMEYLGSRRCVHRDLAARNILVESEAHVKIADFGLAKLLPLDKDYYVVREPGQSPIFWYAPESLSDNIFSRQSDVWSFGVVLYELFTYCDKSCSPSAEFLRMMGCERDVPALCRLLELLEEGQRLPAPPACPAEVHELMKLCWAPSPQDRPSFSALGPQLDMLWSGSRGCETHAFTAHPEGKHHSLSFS
The test is described as follows: JAK3 inhibition assay. Format: biochemical. To be noted: recombinant human JAK3 catalytic domain; polyGT substrate. The method in brief: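 Radiometric kinase assay: 0.5 ng JAK3 with 2.5 μg polyGT in Tris pH 7.5/MgCl2 buffer, 1 μM ATP plus 0.25 μCi 33P-γ-ATP, 1% DMSO, 45 min at 30 °C, stopped with phosphoric acid.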

A further test deals with T2, human TYK2 (Homo sapiens, UniProt P29597).
T2 construct: catalytic domain (amino acids 871-1187; catalog number 08-147); purchased Carna Biosciences 08-147
T2 sequence (P29597 871-1187): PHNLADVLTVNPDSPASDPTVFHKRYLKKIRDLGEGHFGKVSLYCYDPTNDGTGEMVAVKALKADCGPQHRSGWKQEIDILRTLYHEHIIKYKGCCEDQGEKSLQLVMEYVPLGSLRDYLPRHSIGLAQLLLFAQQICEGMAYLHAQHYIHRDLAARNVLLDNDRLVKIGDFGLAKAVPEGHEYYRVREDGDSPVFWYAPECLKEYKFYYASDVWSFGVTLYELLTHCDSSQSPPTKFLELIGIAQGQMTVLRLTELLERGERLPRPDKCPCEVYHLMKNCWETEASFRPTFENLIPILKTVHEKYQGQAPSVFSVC
The test is described as follows: TYK2 inhibition assay. It is filed as biochemical. To be noted: recombinant human TYK2 catalytic domain, polyGT substrate. The method in brief: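 Radiometric kinase reaction run 90 min at 30 °C, stopped with phosphoric acid, washed and scintillation-counted.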

For the next test, the target named is T3, human JAK2 (Homo sapiens, UniProt O60674).
T3 construct: catalytic domain (amino acids 808-1132; catalog number PV4210); GST; purchased Invitrogen PV4210
T3 sequence (O60674 808-1132): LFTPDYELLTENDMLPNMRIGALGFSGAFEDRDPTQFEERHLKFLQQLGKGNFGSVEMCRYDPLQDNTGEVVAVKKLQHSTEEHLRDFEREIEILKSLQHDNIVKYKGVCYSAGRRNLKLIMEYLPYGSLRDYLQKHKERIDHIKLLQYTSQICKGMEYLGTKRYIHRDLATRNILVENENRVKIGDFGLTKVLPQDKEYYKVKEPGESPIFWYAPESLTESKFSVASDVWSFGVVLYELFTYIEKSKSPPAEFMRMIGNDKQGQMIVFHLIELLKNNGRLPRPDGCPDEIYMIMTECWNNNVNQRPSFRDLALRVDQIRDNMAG
The test is described as follows: JAK2 inhibition assay (polyGT substrate / Ulight-JAK1 peptide). It is filed as biochemical. The note with it: recombinant human JAK2 catalytic domain; polyGT or Ulight-JAK1 peptide assay. The method in brief: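 Radiometric: 0.025 mU JAK2 with 2.5 μg polyGT, 1 μM ATP plus ^33P-ATP in MOPS pH 7.5 buffer, 1% DMSO, 90 min at 30° C.; filter counting. Alternative TR-FRET format with Ulight-JAK1 peptide, 60 min at room temperature, Eu-anti-phosphotyrosine detection.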

Another test concerns the target T4, human JAK1 (Homo sapiens, UniProt P23458).
T4 construct: catalytic domain, amino acids 866-1154; catalog number PV4774; purchased Invitrogen PV4774
The test is described as follows: JAK1 inhibition assay (polyGT substrate / Ulight-JAK1 peptide). It is filed as biochemical. The note with it: recombinant human JAK1 catalytic domain; polyGT or Ulight-JAK1 peptide assay. A digest of the protocol: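 Two formats. PolyGT radiometric: 45 min at 30 °C, stopped with phosphoric acid, counted as cpm. Ulight-JAK1 peptide: 60 min at room temperature, stopped with Eu-anti-phosphotyrosine/EDTA, read as RFU. Percent inhibition normalised to vehicle and 10 μM staurosporine.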

Some results are limits rather than exact numbers.

T4 sequence (P23458 866-1154): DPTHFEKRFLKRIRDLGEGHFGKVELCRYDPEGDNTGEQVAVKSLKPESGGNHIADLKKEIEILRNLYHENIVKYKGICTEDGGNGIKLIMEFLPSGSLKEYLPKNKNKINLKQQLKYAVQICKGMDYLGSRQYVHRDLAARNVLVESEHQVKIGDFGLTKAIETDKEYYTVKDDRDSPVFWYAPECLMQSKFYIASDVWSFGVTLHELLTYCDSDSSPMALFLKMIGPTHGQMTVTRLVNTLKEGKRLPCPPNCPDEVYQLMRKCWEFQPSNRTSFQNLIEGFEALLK

For `CCc1cc(CNS(=O)(=O)N2CCOCC2)ccc1N(C)c1cc2c(cn1)ncn2C` [Compound 426, Morpholine-4-sulfonic acid 3-ethyl-4-[methyl-(1-methyl-1H-imidazo[4,5-c]pyridin-6-yl)-amino]-benzylamide], the IC50 with CTLL-2 cell line was > 1000 nM; at human JAK3, 101 to 500 nM; on human TYK2 it was 101 to 500 nM; at human JAK2 it was 0.01 to 100 nM; at human JAK1 it was 0.01 to 100 nM.
As to `CCc1cc(C2CCCCC2)ncc1N(C)c1cc2c(cn1)ncn2C` [Compound 432, (6-Cyclohexyl-4-ethyl-pyridin-3-yl)-methyl-(1-methyl-1H-imidazo[4,5-c]pyridin-6-yl)-amine], the IC50 in the test on CTLL-2 cell line is > 1000 nM; on human JAK3, > 1000 nM; at human TYK2, 101 to 500 nM; at human JAK2 it was 101 to 500 nM; on human JAK1 it was 0.01 to 100 nM.
Consider `CCc1cc(C2CCCC2)ncc1N(C)c1cc2c(cn1)ncn2C` [Compound 433, (6-Cyclopentyl-4-ethyl-pyridin-3-yl)-methyl-(1-methyl-1H-imidazo[4,5-c]pyridin-6-yl)-amine], for which the IC50 with CTLL-2 cell line is > 1000 nM; on human JAK3, 101 to 500 nM; at human TYK2, 101 to 500 nM; on human JAK2, 0.01 to 100 nM; on human JAK1 it was 0.01 to 100 nM.
`CCc1cc(C2CCC2)ncc1N(C)c1cc2c(cn1)ncn2C` [Compound 434, (6-Cyclobutyl-4-ethyl-pyridin-3-yl)-methyl-(1-methyl-1H-imidazo[4,5-c]pyridin-6-yl)-amine]: the IC50 in the test on CTLL-2 cell line was > 1000 nM; at human JAK3, > 1000 nM; on human TYK2, 101 to 500 nM; on human JAK2 it was 101 to 500 nM; on human JAK1, 0.01 to 100 nM.
For `CCc1cc(C(C#N)N2CCC(C#N)CC2)ccc1N(C)c1cc2c(cn1)ncn2C` (stereo not shown) [Compound 435, 1-(Cyano-{3-ethyl-4-[methyl-(1-methyl-1H-imidazo[4,5-c]pyridin-6-yl)-amino]-phenyl}-methyl)-piperidine-4-carbonitrile], the IC50 in the test with CTLL-2 cell line was > 1000 nM; at human JAK3, 101 to 500 nM; at human TYK2, 0.01 to 100 nM; at human JAK2, 0.01 to 100 nM; at human JAK1, 0.01 to 100 nM.
As for `CCc1cc(C(C#N)N2CC(NC(=O)OC(C)(C)C)C2)ccc1N(C)c1cc2c(cn1)ncn2C` (stereo not shown) [Compound 436, [1-(Cyano-{3-ethyl-4-[methyl-(1-methyl-1H-imidazo[4,5-c]pyridin-6-yl)-amino]-phenyl}-methyl)-azetidin-3-yl]-carbamic acid tert-butyl ester], the IC50 is > 1000 nM with CTLL-2 cell line; 101 to 500 nM on human JAK3; 0.01 to 100 nM at human TYK2; 0.01 to 100 nM at human JAK2; 0.01 to 100 nM on human JAK1.
On to `CCc1cc(C(C#N)N2CCC(CO)CC2)ccc1N(C)c1cc2c(cn1)ncn2C` (stereo not shown) [Compound 437, {3-Ethyl-4-[methyl-(1-methyl-1H-imidazo[4,5-c]pyridin-6-yl)-amino]-phenyl}-(4-hydroxymethyl-piperidin-1-yl)-acetonitrile], for which the IC50 is > 1000 nM with CTLL-2 cell line; 101 to 500 nM on human JAK3; 0.01 to 100 nM at human TYK2; 0.01 to 100 nM on human JAK2; 0.01 to 100 nM on human JAK1.
For the compound `CCc1cc(C(C#N)N2CC[C@@H](F)C2)ccc1N(C)c1cc2c(cn1)ncn2C` (stereo partly drawn) [Compound 438, {3-Ethyl-4-[methyl-(1-methyl-1H-imidazo[4,5-c]pyridin-6-yl)-amino]-phenyl}-((R)-3-fluoro-pyrrolidin-1-yl)-acetonitrile], the IC50 in the test on CTLL-2 cell line was > 1000 nM; on human JAK3, 101 to 500 nM; at human TYK2, 0.01 to 100 nM; on human JAK2, 0.01 to 100 nM; at human JAK1, 0.01 to 100 nM.
For `CCc1cc(C(C#N)N2CCC[C@@H]2COC)ccc1N(C)c1cc2c(cn1)ncn2C` (stereo partly drawn) [Compound 439, {3-Ethyl-4-[methyl-(1-methyl-1H-imidazo[4,5-c]pyridin-6-yl)-amino]-phenyl}-((R)-2-methoxymethyl-pyrrolidin-1-yl)-acetonitrile], the IC50 with CTLL-2 cell line is > 1000 nM; on human JAK3, 501 to 1000 nM; on human TYK2, 0.01 to 100 nM; on human JAK2, 101 to 500 nM; on human JAK1, 0.01 to 100 nM.
On to `CCc1cc(C(C#N)N2CC(F)(F)C2)ccc1N(C)c1cc2c(cn1)ncn2C` (stereo not shown) [Compound 440, (3,3-Difluoro-azetidin-1-yl)-{3-ethyl-4-[methyl-(1-methyl-1H-imidazo[4,5-c]pyridin-6-yl)-amino]-phenyl}-acetonitrile], for which the IC50 was > 1000 nM in the test on CTLL-2 cell line; 101 to 500 nM at human JAK3; 0.01 to 100 nM on human TYK2; 0.01 to 100 nM at human JAK2; 0.01 to 100 nM at human JAK1.
In the case of `CCc1cc(C(C#N)N2CCC(F)(F)C2)ccc1N(C)c1cc2c(cn1)ncn2C` (stereo not shown) [Compound 441, (3,3-Difluoro-pyrrolidin-1-yl)-{3-ethyl-4-[methyl-(1-methyl-1H-imidazol[4,5-d]pyridin-6-yl)-amino]-phenyl}-acetonitrile], the IC50 with CTLL-2 cell line is > 1000 nM; on human JAK3, 101 to 500 nM; at human TYK2 it was 0.01 to 100 nM; at human JAK2, 0.01 to 100 nM; at human JAK1 it was 0.01 to 100 nM.
For `CCc1cc(C(C#N)N2CCC(C#N)C2)ccc1N(C)c1cc2c(cn1)ncn2C` (stereo not shown) [Compound 445, 1-(Cyano-{3-ethyl-4-[methyl-(1-methyl-1H-imidazo[4,5-c]pyridin-6-yl)-amino]-phenyl}-methyl)-pyrrolidine-3-carbonitrile], the IC50 is > 1000 nM in the test with CTLL-2 cell line; 101 to 500 nM at human JAK3; 0.01 to 100 nM at human TYK2; 0.01 to 100 nM on human JAK2; 0.01 to 100 nM on human JAK1.
On to `CCc1cc(C(C#N)N2CC(C)(C)C2)ccc1N(C)c1cc2c(cn1)ncn2C` (stereo not shown) [Compound 446, (3,3-Dimethyl-azetidin-1-yl)-{3-ethyl-4-[methyl-(1-methyl-1H-imidazo[4,5-c]pyridin-6-yl)-amino]-phenyl}-acetonitrile], for which the IC50 in the test on CTLL-2 cell line was > 1000 nM; at human JAK3 it was 501 to 1000 nM; on human TYK2, 0.01 to 100 nM; at human JAK2, 0.01 to 100 nM; at human JAK1 it was 0.01 to 100 nM.
As to `CCc1cc(C(C#N)N2CCC(O)CC2)ccc1N(C)c1cc2c(cn1)ncn2C` (stereo not shown) [Compound 447, {3-Ethyl-4-[methyl-(1-methyl-1H-imidazo[4,5-c]pyridin-6-yl)-amino]-phenyl}-(4-hydroxy-piperidin-1-yl)-acetonitrile], the IC50 with CTLL-2 cell line was > 1000 nM; on human JAK3, 101 to 500 nM; on human TYK2, 0.01 to 100 nM; at human JAK2, 0.01 to 100 nM; on human JAK1, 0.01 to 100 nM.
Consider `CCc1cc(C(C#N)N2CC[C@@H](OC)C2)ccc1N(C)c1cc2c(cn1)ncn2C` (stereo partly drawn) [Compound 448, {3-Ethyl-4-[methyl-(1-methyl-1H-imidazo[4,5-c]pyridin-6-yl)-amino]-phenyl}-((R)-3-methoxy-pyrrolidin-1-yl)-acetonitrile], for which the IC50 was > 1000 nM in the test with CTLL-2 cell line; 101 to 500 nM at human JAK3; 0.01 to 100 nM on human TYK2; 0.01 to 100 nM at human JAK2; 0.01 to 100 nM at human JAK1.
Consider `CCc1cc(C(C#N)N2CCN(C)CC2)ccc1N(C)c1cc2c(cn1)ncn2C` (stereo not shown) [Compound 449, {3-Ethyl-4-[methyl-(1-methyl-1H-imidazo[4,5-c]pyridin-6-yl)-amino]-phenyl}-(4-methyl-piperazin-1-yl)-acetonitrile], for which the IC50 is > 1000 nM in the test with CTLL-2 cell line; > 1000 nM on human JAK3; 0.01 to 100 nM at human TYK2; 101 to 500 nM at human JAK2; 0.01 to 100 nM at human JAK1.
Take `CCc1cc(C(C#N)N2CC(O)C2)ccc1N(C)c1cc2c(cn1)ncn2C` (stereo not shown) [Compound 450, {3-Ethyl-4-[methyl-(1-methyl-1H-imidazo[4,5-c]pyridin-6-yl)-amino]-phenyl}-(3-hydroxy-azetidin-1-yl)-acetonitrile]: the IC50 in the test on CTLL-2 cell line is > 1000 nM; on human JAK3, 101 to 500 nM; on human TYK2, 0.01 to 100 nM; at human JAK2, 0.01 to 100 nM; at human JAK1, 0.01 to 100 nM.
